For 60 compounds, melting point and Ki results are on record in patent US6743804B2, “Quinoline derivatives as NK3 antagonists” (SmithKline Beecham S p.A., priority 1996, dated 2004).

Counter-ions that a name gives are not always drawn.

Tested on in the first data set: not given
Experiment: not given
As a reminder, the melting point is the temperature, or range, at which the solid turns liquid. Take `COC(=O)[C@H](NC(=O)c1cc(-c2ccccc2)nc2ccccc12)c1ccc(O)cc1` (as salt: HCl) [Example 83, (R)-N-[α-(methoxycarbonyl)-4-hydroxybenzyl]-2-phenylquinoline-4-carboxamide]: the melting point was 140 °C (dec.).

`COC(=O)[C@H](NC(=O)c1cc(-c2ccccc2)nc2ccccc12)C1=CCC=CC1` [Example 16] had a melting point of 120 to 122 °C.

As to `C[C@H](O)[C@H](NC(=O)c1cc(-c2ccccc2)nc2ccccc12)c1ccccc1` [Example 17, (R,S)-N-[α-(1-hydroxyethyl)benzyl]-2-phenylquinoline-4-carboxamide], the melting point fell in the range of 204 to 205 °C.

As for `CCC(NC(=O)c1c(OC)c(-c2ccccc2)nc2ccccc12)c1ccccc1` (centres unmarked) [Example 18], the melting point lay in the range of 164 to 165 °C.

As for `CCCCc1c(-c2ccccc2)nc2ccccc2c1C(=O)NC(CC)c1ccccc1` (centres unmarked) [Example 19], the melting point was 147 to 150 °C.

For the compound `COC(=O)C(NC(=O)c1c2c(nc3ccccc13)-c1ccccc1CCC2)c1ccccc1` (centres unmarked) [Example 20], the melting point lay in the range of 186 to 188 °C.

Regarding `COC(=O)C(NC(=O)c1cc(-c2ccccc2OC)nc2ccccc12)c1ccccc1` (centres unmarked) [Example 24], the melting point is 124 to 125 °C.

Turning to `CCC(NC(=O)c1c(-c2ccccc2)c(-c2ccccc2)nc2ccccc12)c1ccccc1` (centres unmarked) [Example 25], the melting point lay within 198 to 200 °C.

As for `COC(=O)C(NC(=O)c1cc(-c2ccccc2F)nc2ccccc12)c1ccccc1` (centres unmarked) [Example 26], the melting point lay within 146 to 147 °C.

For `CCC(NC(=O)c1cc(-c2ccccc2)nc2ccccc12)c1ccc(Cl)c(Cl)c1` (centres unmarked) [Example 27], the melting point was in the range of 193 to 194 °C.

Compound `O=C(NC(CO)c1ccccc1)c1cc(-c2ccccc2)nc2ccccc12` (centres unmarked) [Example 28] gave a melting point of 117 to 119 °C.

Consider `COC(=O)C(NC(=O)c1c(C)c(-c2ccccc2)nc2ccccc12)c1ccccc1` (centres unmarked) [Example 30], for which the melting point is 180 to 181 °C.

With `COC(=O)C(NC(=O)c1cc(-c2ccccc2)nc2cc(Cl)ccc12)c1ccccc1` (centres unmarked) [Example 32], the melting point lay in the range of 180 to 183 °C.

With `COC(=O)C(NC(=O)c1cc(-c2ccccc2)nc2ccc(C)cc12)c1ccccc1` (centres unmarked) [Example 33], the melting point was 179 to 181 °C.

For `COCC(NC(=O)c1cc(-c2ccccc2)nc2ccccc12)c1ccccc1` (centres unmarked) [Example 34], the melting point is 144 to 145 °C.

Consider `COC(=O)C(NC(=O)c1cc(-c2ccccc2)nc2ccc(Cl)cc12)c1ccccc1` (centres unmarked) [Example 35], for which the melting point is 197 to 199 °C.

Regarding `CCc1c(-c2ccccc2)nc2ccccc2c1C(=O)NC(C(=O)OC)c1ccccc1` (centres unmarked) [Example 36], the melting point was 156 to 157 °C.

Take `CCCC(NC(=O)c1cc(-c2ccccc2)nc2ccccc12)c1ccccc1` (centres unmarked) [Example 37]: the melting point was 149 to 150 °C.

With `CCc1c(-c2ccccc2)nc2ccccc2c1C(=O)NC(CC)c1ccccc1` (centres unmarked) [Example 38], the melting point fell in the range of 158 to 159 °C.

Compound `CCC(NC(=O)c1c(N2C(=O)c3ccccc3C2=O)c(-c2ccccc2)nc2ccccc12)c1ccccc1` (centres unmarked) [Example 39] returned a melting point of 201 to 202 °C.

With `CCCc1c(-c2ccccc2)nc2ccccc2c1C(=O)NC(CC)c1ccccc1` (centres unmarked) [Example 40], the melting point lay within 149 to 151 °C.

For the compound `CC[C@H](NC(=O)c1c(C)c(-c2ccc(Br)cc2)nc2ccc(Br)cc12)c1ccccc1` [Example 41], the melting point lay in the range of 230 to 231 °C.

The compound `CC[C@H](NC(=O)c1c(C)c(-c2ccccc2)nc2ccc(Br)cc12)c1ccccc1` [Example 42] registered a melting point of 179 to 180 °C.

`COC(=O)C(NC(=O)c1cc(-c2ccccc2)nc2ccc(OC)cc12)c1ccccc1` (centres unmarked) [Example 43]: the melting point was in the range of 209 to 211 °C.

`COC(=O)C(NC(=O)c1cc(-c2cc3ccccc3o2)nc2ccccc12)c1ccccc1` (centres unmarked) [Example 44] showed a melting point of 240 to 241 °C.

The compound `O=C(NC(Cc1ccccc1)c1ccccc1)c1cc(-c2ccccc2)nc2ccccc12` (centres unmarked) [Example 45] showed a melting point of 194 to 196 °C.

The compound `O=C(NC(c1ccccc1)C(F)(F)F)c1cc(-c2ccccc2)nc2ccccc12` (centres unmarked) [Example 46] yielded a melting point of 180 to 181 °C.

`CC[C@H](NC(=O)c1c(OC)c(-c2ccccc2)nc2ccccc12)c1ccccc1` [Example 47] gave a melting point of 132 to 134 °C.

On to `CCc1c(-c2ccccc2)nc2ccccc2c1C(=O)N[C@@H](CC)c1ccccc1` [Example 48], for which the melting point lay in the range of 118 to 120 °C.

In turn, `CCC(NC(=O)c1cc(-c2ccccc2)nc2ccccc12)c1ccc(Cl)cc1` (centres unmarked) [Example 49] returned a melting point of 177 to 178 °C.

`COC(=O)C(c1ccccc1)N(C)C(=O)c1cc(-c2ccccc2)nc2ccccc12` (centres unmarked) [Example 50] came in with a melting point of 128 to 129 °C.

`COC(=O)C(NC(=O)c1cc(-c2ccsc2)nc2ccccc12)c1ccccc1` (centres unmarked) [Example 51] displayed a melting point of 169 to 171 °C.

Compound `COC(=O)C(NC(=O)c1c2c(nc3ccccc13)-c1ccccc1CC2)c1ccccc1` (centres unmarked) [Example 52] showed a melting point of 217 to 219 °C.

With `COC(=O)C(NC(=O)c1cc(-c2ccc[nH]2)nc2ccccc12)c1ccccc1` (centres unmarked) [Example 53], the melting point was 181 to 182 °C.

`COC(=O)C(NC(=O)c1cc(-c2nccs2)nc2ccccc12)c1ccccc1` (centres unmarked) [Example 54] had a melting point of 209 to 211 °C.

Consider `CCCCC(NC(=O)c1cc(-c2ccccc2)nc2ccccc12)c1ccccc1` (centres unmarked) [Example 56], for which the melting point lay within 155 to 156 °C.

Take `COC(=O)C(NC(=O)c1cc(-c2ccc(C)cc2)nc2ccccc12)c1ccccc1` (centres unmarked) [Example 57]: the melting point was 172 to 174 °C.

For the compound `COC(=O)C(NC(=O)c1cc(-c2ccccc2C)nc2ccccc12)c1ccccc1` (centres unmarked) [Example 59], the melting point lay within 180 to 182 °C.

Consider `COC(=O)C(NC(=O)c1cc(-c2ccc(OC)cc2)nc2ccccc12)c1ccccc1` (centres unmarked) [Example 60], for which the melting point lay within 182 to 183 °C.

`O=C(NC1(c2ccccc2)CCCC1)c1cc(-c2ccccc2)nc2ccccc12` [Example 61] registered a melting point of 164 to 165 °C.

With `COC(=O)C(NC(=O)c1cc(-c2ccc(O)cc2)nc2ccccc12)c1ccccc1` (centres unmarked) [Example 62], the melting point fell in the range of 226 to 227 °C.

`COC(=O)C(NC(=O)c1cc(-c2ccc3c(c2)OCO3)nc2ccccc12)c1ccccc1` (centres unmarked) [Example 63] showed a melting point of 186 to 187 °C.

In turn, `CC(C)(NC(=O)c1cc(-c2ccccc2)nc2ccccc12)c1ccccc1` [Example 64] came in with a melting point of 173 to 174 °C.

Consider `CCC(NC(=O)c1cc(-c2ccccc2)nc2ccccc12)c1ccc(C)cc1` (centres unmarked) [Example 65], for which the melting point was in the range of 160 to 162 °C.

`COC(=O)C(NC(=O)c1cc(-c2cc[nH]c2)nc2ccccc12)c1ccccc1` (centres unmarked) [Example 66] showed a melting point of 202 to 204 °C.

`COC(=O)C(NC(=O)c1cc(-c2ccc(Cl)c(Cl)c2)nc2ccccc12)c1ccccc1` (centres unmarked) [Example 67] gave a melting point of 164 to 165 °C.

With `NC[C@H](NC(=O)c1cc(-c2ccccc2)nc2ccccc12)c1ccccc1` [Example 68], the melting point lay within 139 to 141 °C.

In turn, `CC[C@H](NC(=O)c1c(Cl)c(-c2ccccc2)nc2ccccc12)c1ccccc1` [Example 70] had a melting point of 137 to 139 °C.

In turn, `CC[C@H](NC(=O)c1c(Br)c(-c2ccccc2)nc2ccccc12)c1ccccc1` [Example 71] registered a melting point of 119 to 122 °C.

`CC(C)C(NC(=O)c1cc(-c2ccccc2)nc2ccccc12)c1ccccc1` (centres unmarked) [Example 72] had a melting point of 165 to 166 °C.

`COC(=O)C(NC(=O)c1cc(-c2ccccc2)nc2ccc(F)cc12)c1ccccc1` (centres unmarked) [Example 75] gave a melting point of 174 to 176 °C.

`COC(=O)C(NC(=O)c1cc(C2CCCCC2)nc2ccccc12)c1ccccc1` (centres unmarked) [Example 76] registered a melting point of 151 to 153 °C.

In turn, `COC(=O)C(NC(=O)c1cc(-c2cccc(Cl)c2)nc2ccccc12)c1ccccc1` (centres unmarked) [Example 77] showed a melting point of 161 to 163 °C.

In the case of `COC(=O)C(NC(=O)c1cc(-c2ccccc2Cl)nc2ccccc12)c1ccccc1` (centres unmarked) [Example 78], the melting point lay in the range of 175 to 178 °C.

In turn, `COC(=O)C(NC(=O)c1cc(-c2ccccc2)nc2c(OC(C)=O)cccc12)c1ccccc1` (centres unmarked) [Example 80] displayed a melting point of 193 to 194 °C.

In turn, `COC(=O)C(NC(=O)c1cc(-c2ccccc2)nc2c(O)cccc12)c1ccccc1` (centres unmarked) [Example 81] had a melting point of 178 to 180 °C.

Consider `COC(=O)C(NC(=O)c1cc(-c2ccc(Cl)cc2Cl)nc2ccccc12)c1ccccc1` (centres unmarked) [Example 82], for which the melting point is 142 to 143 °C.

The compound `O=C(NC(c1ccccc1)c1ccccc1)c1cc(-c2ccccc2)nc2ccccc12` [Example 84] gave a melting point of 182 to 184 °C.

The compound `COC(=O)[C@H](NC(=O)c1c(O)c(-c2ccccc2)nc2ccccc12)c1ccccc1` [Example 87] yielded a melting point of 125 to 127 °C.

For another data set, the target named is T1, guinea-pig NK3 receptors (Cavia porcellus, UniProt P30098).
T1 sequence (P30098 1-440): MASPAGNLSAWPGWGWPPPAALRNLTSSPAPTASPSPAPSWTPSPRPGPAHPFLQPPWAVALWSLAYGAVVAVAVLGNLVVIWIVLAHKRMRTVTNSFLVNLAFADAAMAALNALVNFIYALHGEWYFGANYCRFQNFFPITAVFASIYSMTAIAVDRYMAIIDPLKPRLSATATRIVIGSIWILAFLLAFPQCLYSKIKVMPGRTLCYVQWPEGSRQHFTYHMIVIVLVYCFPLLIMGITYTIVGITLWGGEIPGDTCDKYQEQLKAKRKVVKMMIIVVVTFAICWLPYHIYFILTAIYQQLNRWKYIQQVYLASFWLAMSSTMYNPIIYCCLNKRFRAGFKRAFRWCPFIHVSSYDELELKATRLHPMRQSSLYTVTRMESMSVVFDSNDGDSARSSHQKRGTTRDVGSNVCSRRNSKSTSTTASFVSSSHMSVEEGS
Description: Radioligand binding to guinea-pig NK3 receptors (guinea-pig cortex membranes, displacement of [3H]-Senktide or [125I]-[Me-Phe7]-NKB). (In general: In a radioligand displacement assay an active substance lowers the binding of a labelled ligand.)
Description: The activity of the compounds of the present invention, as NK3 ligands, is determined by their ability to inhibit the binding of the radiolabelled NK3 ligands, [^125I]-[Me-Phe^7]-NKB or [^3H]-Senktide, to guinea-pig and human NK3 receptors (Renzertti et al, 1991, Neuropeptide, 18, 104-114; Buell et al, 1992, FEBS, 299(1), 90-95; Chung et al, 1994, Biochem. Biophys. Res. Commun., 198(3), 967-972). The binding assays utilized allow the determination of the concentration of the individual compound required to reduce by 50% the [^125I]-[Me-Phe^7]-NKB and [^3H]-Senktide specific binding to NK3 receptor in equilibrium conditions (IC50). Binding assays provide for each compound tested a mean IC50 value of 2-5 separate experiments performed in duplicate or triplicate. […] The NK3-antagonist activity of the compounds of the present invention is determined by their ability to inhibit senktide-induced contraction of the guinea-pig ileum (Maggi et al, 1990, Br. J. Pharmacol., 101, 996-1000) and rabbit isolated iris sphincter muscle (Hall et al., 1991, Eur. J. Pharmacol., 199, 9-14) and human NK3 receptors-mediated Ca^++ mobilization (Mochizuki et al, 1994, J. Biol. Chem., 269, 9651-9658). Guinea-pig and rabbit in-vitro functional assays provide for each compound tested a mean KB value of 3-8 separate experiments, where KB is the concentration of the individual compound required to produce a 2-fold rightward shift in the concentration-response curve of senktide. Human receptor functional assay allows the determination of the concentration of the individual compound required to reduce by 50% (IC50 values) the Ca^++ mobilization induced by the agonist NKB.
One may read the Ki as the equilibrium dissociation constant of an inhibitor or competing ligand from its target. Read a low Ki as higher affinity. In the case of `CC[C@H](NC(=O)c1c(C)c(-c2ccccc2)nc2ccccc12)c1ccccc1` [Example 22], the inhibition constant (Ki) stood at 5.6 nM.

As to `CC[C@H](NC(=O)c1c(OC)c(-c2ccccc2)nc2ccccc12)c1ccccc1` [Example 47], the affinity corresponds to a Ki of 8.8 nM.

`CCc1c(-c2ccccc2)nc2ccccc2c1C(=O)N[C@@H](CC)c1ccccc1` [Example 48] displayed a Ki of 12 nM.
